In patent US20120088247A1, “MATERIALS AND METHODS FOR TREATING PATIENTS WITH TAXOXIFEN” (Indian University Research & Technology Corporatio, priority 2009, published 2012):
Blank lines part the entries; values can stand above or below the molecule they belong to.

Assays:
[1] = Plasma concentrations of tamoxifen and its metabolites (HPLC) in women with breast cancer taking tamoxifen, by UGT2B7 genotype and CYP2D6 score
Source text: Patients. […] Subjects for the registry were recruited from the Breast Oncology Program at the University of Michigan Comprehensive Cancer Center and the Indiana University Cancer Center. […] Patients were enrolled after they had completed all primary surgery, radiation, and adjuvant chemotherapy. Specimens and data from this registry has been sed for several other studies, as reported previously,[16],[6],[17].
Study design. […] At the indicated time points, medical histories, including a comprehensive list of current medications, were obtained, and blood samples (5 mL) were drawn. […] Blood was collected in heparin tubes, and plasma was separated within 1 hour of blood collection by centrifugation at 2060×g. All samples (plasma and whole blood) were transferred to cryogenic vials (Corning, Cambridge, Mass.), shipped to the laboratory of the Division of Clinical Pharmacology, Indiana University, on dry ice, and stored at −80° C. until analysis.
UGT 2B7 genotyping. Genomic deoxyribonucleic acid (DNA) was extracted from the leukocyte portion of whole blood by use of a QJAamp DNA Blood Mini Kit (Qiagen, Valencia, Calif.) and used for genotyping of UGT2B7 variants. UGT2B7 codon 268 genotypes were determined by real-time PCR assays using the TaqMan Drug Metabolism Genotyping Assay C—32449742—20 (Applied Biosystems, Foster City, Calif.) in the ABI 7900HT sequence detection system equipped with an autoloader in the Functional Genomics Core Facility at the Penn State College of Medicine. […] The same primers were used for both PCR and sequencing: sense, 5′-[…]-3′ (SEQ ID. No. 3), located +642-+670 from the UGT2B7 translation start site); and antisense, 5′-[…]-3′ (SEQ. ID. No. 4), located +1555-+1597 from the UGT2B7 translation start site.
CYP2D6 genotyping. Genomic DNA was extracted from whole blood. CYP2D6 genotyping was conducted using two different genotyping methods: The AmpliChip CYP450 Test (Roche Diagnostics, Indianapolis, Ind.) and the Luminex CYP450C CYP2D6 assay (TM Biosciences). The AmpliChip was used for 129 of the DNA samples. It tests for 33 CYP2D6 alleles (ie, *1 to *10AB, *11, *14A, *14B, *15, *17, *19, *20, *25, *26, *29 to *31, *35, *36, *40, *41, *1N, *2xN, *4xN, *10xN, *17xN, *35xN, and *41xN). The remaining 60 samples were genotyped using the Luminex CYP450 Test. It tests for 16 CYP2D6 alleles (ie, *2 through *12, *14, *15, *17, and *41). The genotypes of approximately 10-20% of the samples were confirmed by running both assays or by using independent Taqman or restriction fragment length polymorphism (RFLP) assays.
CYP2D6 Gene Score. The CYP2D6 alleles were assigned a value that reflects the expected relative activity of the CYP2D6 enzyme for which they code. Accordingly, fully functional CYP2D6 alleles (e.g. *1, *2, *33, *35) were assigned a score of 1. CYP2D6 alleles associated with reduced enzyme activity (e.g. *9,*10, *17, *29, *37, *41, *45, *46) were scored as 0.5.
CYP2D6 Inhibition Factor and CYP2D6 Activity Score. After calculating the expected activity of the CYP2D6 enzyme according to the genotype, the possible effects of known CYP2D6 inhibitors on the performance of the CYP2D6 protein were incorporated. […] This rule defines the CYP2D6 inhibition factor. The CYP2D6 Activity Score is expressed as the product of multiplying the CYP2D6 Gene Score by the Inhibitor factor, which is defined in the following equation: activity score=(gene score×inhibition factor),
In presenting CYP2D6 activity score data, an extensive metabolizer (EM) was defined as an individual with an activity score greater than 2; a poor metabolizer (PM) was defined with an activity score less than 1; and an intermediate metabolizer (IM) as an individual who has a score between 1 and 2.

[2] = literature refs [18],[19]; cited from earlier work

Association of plasma concentration with UGT2B7 genotype ([1]; FIG. 1, P<0.05 considered significant): not significantly associated
Mean plasma concentration, percent larger in the *2/*2 group ([1]; UGT2B7 *2/*2 group (FIG. 1A, 1D)): 42%
Structure (SMILES): CC/C(=C(\c1ccccc1)c1ccc(OCCNC)cc1)c1ccccc1 [N-desmethyl-tamoxifen]

Increase in concentration due to gene-gene interaction ([1]; female, human, in vivo): 220%
Increase in endoxifen concentration ([1]; female, human, in vivo): 58%
Mean plasma endoxifen concentration, percent higher in UGT2B7*2/*2 group than in each of *1/*2 and *1/*1 groups ([1]; female, human, in vivo): 34%
Range of mean plasma endoxifen concentration by compound UGT2B7 genotype and CYP2D6 score ([1]; female, human, in vivo): 12 to 100 nM
Range of mean plasma endoxifen concentration over combined UGT2B7 genotype and CYP2D6 score groups ([1]; female, human, in vivo): 19 to 107 nM
Association of plasma concentration with UGT2B7 genotype ([1]; in vivo): significant
Structure (SMILES): CC/C(=C(\c1ccc(O)cc1)c1ccc(OCCNC)cc1)c1ccccc1 [endoxifen, 4-hydroxy-N-desmethyl-tamoxifen]

Structure (SMILES): CC/C(=C(\c1ccccc1)c1ccc(OCCN(C)C)cc1)c1ccccc1 [tamoxifen, Tamoxifen]
half-life [2]: 120 to 170 h
